# Measurements taken from paper PMC3779320, “Bub3 reads phosphorylated MELT repeats to promote spindle assembly checkpoint signaling” (eLife, 2013).
# Substitutions are numbered along the chain they refer to. Square brackets hold non-standard residues; d marks the D form. Peptide text beside a SMILES is read from it. pT = C[C@@H](OP(=O)(O)O)[C@H](N)C(=O)O
# Key:
# Bub1^289–359–Bub3^R239A = target: T1, Bub1^289–359–Bub3^R239A (Saccharomyces cerevisiae, UniProt P26449+P41695, R239A); assay: ITC binding to Bub1^289–359–Bub3^R239A; settings: Bub3 R239A compared with wild type (13- to 25-fold for R217A or R239A)
# T1 construct: S. cerevisiae Bub1^289–359 and for full length Bub3; ITC experiments with the MELT2^P peptide and Bub1^289–359–Bub3^R239A; GST (N, cleaved yes); made in house; host or cells: E. coli BL21 DE3 plysS
# T1 sequence (P26449 1-341 R239A): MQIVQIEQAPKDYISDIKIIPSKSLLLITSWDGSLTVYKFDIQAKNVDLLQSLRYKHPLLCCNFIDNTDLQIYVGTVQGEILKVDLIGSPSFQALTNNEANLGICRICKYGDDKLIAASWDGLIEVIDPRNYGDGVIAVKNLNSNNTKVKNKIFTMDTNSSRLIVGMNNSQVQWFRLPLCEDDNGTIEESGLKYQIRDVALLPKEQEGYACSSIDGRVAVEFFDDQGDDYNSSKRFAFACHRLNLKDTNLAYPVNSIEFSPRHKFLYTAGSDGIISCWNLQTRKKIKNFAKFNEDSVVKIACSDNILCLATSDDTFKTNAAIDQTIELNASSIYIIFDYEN
# T1 sequence (P41695 289-359): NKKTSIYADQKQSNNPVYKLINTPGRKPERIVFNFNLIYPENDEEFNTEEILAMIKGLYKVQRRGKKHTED
# From the text: Because the presence of a phosphate on Thr172^Spc105/Knl1 is essential for high-affinity binding of ScBub1^289–359–Bub3 to MELT^P peptides (Figure 1), we concentrated our mutational analysis on two residues that are directly implicated in the recognition of the peptide’s phospho-threonine, Arg217^Bub3 and Arg239^Bub3. Positively charged residues are invariant at these positions of the Bub3 alignment (Figure 2C). We generated single or double alanine mutants of Arg217^Bub3 and Arg239^Bub3 in the context of ScBub1^289–359–Bub3 and tested their binding affinity for the MELT2^P peptide by ITC.
# cDNA sequences coding for S. cerevisiae Bub1^289–359 and for full length Bub3 were subcloned in the first and second cassettes of pGEX-6P-2rbs vector ([Ciferri et al., 2005]). In this construct, the cDNA encoding Bub1^289–359 was sub-cloned in frame with the gene encoding GST and a cleavage site for PreScission protease, and was translated from the first ribosome-binding site (rbs). Untagged Bub3 was subcloned downstream of the second rbs in the same vector. Expression was carried out in BL21 DE3 plysS cells in LB medium by auto-induction with 0.3% lactose at 18°C for approximately 16 hr. […]
# (§1) Binding isotherm was measured at 25°C by isothermal titration calorimetry on a MicroCal ITC200 device (GE Healthcare, Piscataway, NJ). […]
# Bub1^289–359–Bub3 = target: T2, Bub1^289–359–Bub3 (Saccharomyces cerevisiae, UniProt P26449+P41695); assay: ITC binding of MELT peptides to Bub1^289–359–Bub3 (wild type); settings: 25°C, 20 mM Tris pH7.5, 150 mM NaCl, 1 mM DTE, complex 30 µM in cell, peptide 400 µM
# T2 construct: S. cerevisiae Bub1^289–359 and for full length Bub3; GST (N, cleaved yes); made in house; host or cells: E. coli BL21 DE3 plysS
# T2 sequence (P26449 1-341): T1 sequence (P26449 1-341 R239A) with A239R
# T2 sequence (P41695 289-359): T1 sequence (P41695 289-359)
# From the text: We generated recombinant ScBub1^289–359–Bub3 (where the Bub1 segment is equivalent to the minimal kinetochore targeting region of human Bub1 [[Krenn et al., 2012]]) by bacterial co-expression and purified it to homogeneity (Figure 1D). To assess whether Bub1–Bub3 binds directly to MELT^P sequences, we tested its ability to bind MELT sequences in quantitative isothermal titration calorimetry (ITC) binding experiments. 19-residue synthetic peptides encompassing the sequences of the second and fourth MELT^P motifs of Spc105/Knl1 (indicated as MELT2 and MELT4, respectively), each flanked by four and eleven residues on the N- and C-terminal ends, respectively, were tested (Figure 1C). […] Thus, ScBub1^289–359–Bub3 is sufficient for the reconstitution of tight interactions with two MELT^P peptides in vitro that recapitulate a salient feature of this interaction, its dependency on phosphorylation.
# cDNA sequences coding for S. cerevisiae Bub1^289–359 and for full length Bub3 were subcloned in the first and second cassettes of pGEX-6P-2rbs vector ([Ciferri et al., 2005]). In this construct, the cDNA encoding Bub1^289–359 was sub-cloned in frame with the gene encoding GST and a cleavage site for PreScission protease, and was translated from the first ribosome-binding site (rbs). Untagged Bub3 was subcloned downstream of the second rbs in the same vector. Expression was carried out in BL21 DE3 plysS cells in LB medium by auto-induction with 0.3% lactose at 18°C for approximately 16 hr. Cells were harvested by centrifugation and resuspended in Buffer A (20 mM Tris pH 7.5, 300 mM NaCl, 10% Glycerol, 1 mM DTE, 1 mM EDTA pH 8.0, 1 mM PMSF) typically at a dilution of 3 ml lysis buffer per ml of bacterial pellet. Cells were lysed by sonication, and the lysates were cleared by centrifugation at 75000 × g for 45 min. The resulting clear supernatant was incubated with gentle rotation with 1/50 (vol/vol) of GSH-sepharose slurry (GE Healthcare) for 1–2 hr at 4°C. Beads were washed with 150 vol of Buffer A. To elute the Bub1–Bub3 complex from beads, GST-PreScission protease (0.02 mg/mg of protein target) was added for 16 hr at 4°C. The eluate was concentrated on Amicon Ultra Centrifugal Filters MwCO 3000 (Merck Millipore, Billerica, MA) and further purified by size exclusion chromatography (SEC) on a Superdex 75 16/60 column using GF buffer (20 mM Tris pH 7.5, 150 mM NaCl, 1 mM DTE). The complex eluted in a single peak with apparently stoichiometric amounts of Bub1^289–359 and Bub3 and was subsequently concentrated to ∼10 mg/ml for crystallization or to 2–4 mg/ml for ITC experiments. […]
# as §1
smiles,measurement,setting,value
CC[C@H](C)[C@H](NC(=O)[C@H](CO)NC(=O)[C@H](CCCNC(=N)N)NC(=O)[C@@H]1CCCN1C(=O)[C@H](Cc1ccccc1)NC(=O)[C@@H](NC(=O)[C@H](CCC(=O)O)NC(=O)[C@@H](NC(=O)[C@H](CCSC)NC(=O)[C@H](CCC(=O)O)NC(=O)[C@H](CCSC)NC(=O)[C@H](CO)NC(=O)[C@@H](NC(=O)[C@@H]1CCCN1C(=O)[C@H](CC(=O)O)NC(C)=O)[C@@H](C)O)[C@@H](C)OP(=O)(O)O)C(C)C)C(=O)N[C@@H](CCCNC(=N)N)C(=O)N[C@@H](CCC(N)=O)C(=O)N[C@@H](CCCCN)C(=O)N[C@@H](CC(N)=O)C(N)=O [MELT2^P] (Ac-DPTSMEM[pT]EVFPRSIRQKN-NH2; N-terminus and C-terminus assumed),fold reduction in binding affinity,Bub1^289–359–Bub3^R239A,25 fold
same,binding (in words),Bub1^289–359–Bub3,no binding
